Holding throughout (type): cell-based
For test [1], the system named is H441 lung cancer cell. The test is described as follows: BrdU cell proliferation assay (PerkinElme kit). The following applies: Homo sapiens, NCI-H441, 48 h; read-out: In vitro cell-inhibiting activity IC50 H441. The protocol:
(§1) Experimental method: cell proliferation assay was carried out by BrdU method (BrdU cell proliferation assay kit, PerkinElme Company).
(§2) Preparation of gradient dilution solutions of test compound: the stock solution containing 5 mM test compound was diluted by DMSO to prepare a 2 mM solution, then was subjected to 4-fold stepwise dilution to 9 concentration gradients.
(§3) (1) Cells grown to exponential growth phase were digested with pancreatin, and centrifuged to collect the cells. The adherent cells were re-suspended in the corresponding culture medium, counted, and seeded to a 96-well plate; H358 cells and SW780 cells were seeded at 4000 cells/well/100 μL; PC3 cells were seeded at 1500 cells/well/100 μL; H441 cells were seeded at 6000 cells/well/100 μL. The plates were placed in a cell incubator at 37° C. After the cells adhered to the wall, the medium was replaced by serum-free medium. The suspended cells MV-4-11 and JeKo-1 were re-suspended with serum-free medium, counted, seeded to a 96-well plate by 10000 cells/well/100 μL and placed in a cell incubator overnight at 37° C. with 5% CO2.
(§4) (2) To each well, 99 μL growth medium containing 2×FBS was added, then 1 μL diluted 200× test compound was added to the well. The final concentration of the test compound was 10000, 2500, 625, 156.25, 39.06, 9.77, 2.44, 0.61, 0.15 or 0 nM, and the cells were cultured for 48 h at 37° C.
(§5) (3) To each well, 2 μL 100-fold BrdU labelled solution was added, and the culture medium was sucked by a vacuum pump after incubation in a cell incubator overnight and equilibrated at room temperature for 0.5 h.
(§6) (4) To each well, 100 μL fixing solution was added; the solution was discarded after incubation for 30 min at room temperature.
(§7) (5) To each well, 100 μL 1-fold BrdU-Eu detection antibody solution was added, the solution was discarded after incubation for 1 h at room temperature, and the well was washed with 1-fold washing liquor at 250 μL/well for 5 times.
(§8) (6) To each well, 200 μL of DELFIA Inducer was added and incubated for 15 min at room temperature. Value of fluorescence (Flu) was measured by ELISA instrument
(§9) (2) The data was processed by GraphPad Prism 6 software to get a curve and IC50 values.

Test [2] relates to H358 lung cancer cell. The test is described as follows: BrdU cell proliferation assay (PerkinElme kit). The following applies: Homo sapiens, NCI-H358, 48 h; read-out: In vitro cell-inhibiting activity IC50 H358. The protocol:
as §1, §2, §3, §4, §5, §6, §7, §8, §9

Test [3] relates to PC3 prostatic cancer cell. The test is described as follows: BrdU cell proliferation assay (PerkinElme kit). The following applies: 48 h; read-out: In vitro cell-inhibiting activity IC50 PC3. The protocol:
as §1, §2, §3, §4, §5, §6, §7, §8, §9

Test [4] relates to SW780 bladder cancer cell. The test is described as follows: BrdU cell proliferation assay (PerkinElme kit). The following applies: Homo sapiens, SW780, 48 h; read-out: In vitro cell-inhibiting activity IC50 SW780. The protocol: as §1, §2, §3, §4, §5, §6, §7, §8, §9
For test [5], the system named is U87MG human glioblastoma cell. The test is described as follows: BrdU cell proliferation assay (Cell Signaling kit). The following applies: U-87 MG, 72 h, read-out: In vitro cell-inhibiting activity IC50 U87MG. The protocol: Experimental method: cell proliferation assay was carried out by BrdU method (BrdU cell proliferation assay kit, Cell Signaling Technology Company).
Preparation of gradient dilution solutions of test compound: the stock solution containing 10 mM test compound was subjected to 4-fold stepwise dilution with DMSO to prepare solutions containing 2.5 mM, 625 μM, 156 μM, 39 μM, 9.8 μM, and 2.5 μM test compound, respectively. 2 μL DMSO-diluted compound was added to 198 μL culture medium containing 10% FBS to prepare […] test compound, wherein the maximum concentration of the test compound was 100 μM, the concentration of DMSO was 1%, and there were 7 concentration gradients.
U87MG medium: MEM+10% FBS
(1) Cells grown to 80% confluence (in exponential growth phase) were digested with pancreatin, and centrifuged to collect the cells. MDA-MB-435S and U87MG cells were re-suspended in FBS-free culture medium, counted, and seeded to a 96-well plate; MDA-MB-435S cells were seeded at 3000 cells/well/81 μL; U87MG cells were seeded at 4000 cells/well/81 MCF-7 cells were resuspended in culture medium containing 1% FBS, and counted and seeded to a 96-well plate, at 4000 cell/well/82 μL. The plates were placed in a cell incubator at 37° C. […]
(9) To each well, stop solution (100 μL) was added, and OD value at 450 nm was measured by ELISA instrument […]

For the compound `CCN1CCN(Cc2cnc(Nc3cc(-c4cc(F)c5nc(C)n(C(C)C)c5c4)c(F)cn3)nc2)CC1` [Compound 1, 5-((4-ethylpiperazin-1-yl)methyl)-N-(5-fluoro-4-(4-fluoro-1-isopropyl-2-methyl-1H-benzo[d]imidazol-6-yl)pyridin-2-yl)pyrimidin-2-amine], the IC50 was determined as 148 nM in test [1], 291 nM in test [2], 260 nM in test [3] and 162 nM in test [4].

For `CCN1CCN(Cc2ccc(Nc3ncc(F)c(-c4cc(F)c5nc(C)n(C(C)C)c5c4)n3)nc2)CC1` [LY2835219, reference compound], the IC50 in test [5] was 40 nM.

(Values after patent publication US9949976B2, “Kinase inhibitor and use thereof” (Sihuan Pharmaceutical Holdings Group Ltd., priority 2013, dated 2018).)
